Numbers after ± are expanded uncertainties.
Assays:
[1] = molar heat capacity at constant pressure; conditions: 101.33 kPa, Liquid, Small sample (50 mg) DSC
[2] = 101.33 kPa, Liquid; for thermal conductivity: transient hot wire; for mass density: Vibrating tube method; for viscosity: Cone and plate viscometry; for electrical conductivity: Direct current cell with electrodes

CC(=O)[O-].CCCCCCCCCCCCCC[P+](CCCCCC)(CCCCCC)CCCCCC [trihexyl(tetradecyl)phosphonium acetate]
Conditions | electrical conductivity [S/m] | mass density [kg/m3] | molar heat capacity at constant pressure [J/K/mol] | thermal conductivity [W/m/K] | viscosity [mPa·s]
[1], 293.15 K | – | – | 1095.6 ± 67 | – | –
[1], 298.15 K | – | – | 1097.7 ± 68 | – | –
[1], 303.15 K | – | – | 1101.5 ± 68 | – | –
[1], 308.15 K | – | – | 1105.9 ± 68 | – | –
[1], 313.15 K | – | – | 1111.3 ± 68 | – | –
[1], 318.15 K | – | – | 1116.7 ± 69 | – | –
[1], 323.15 K | – | – | 1122.7 ± 69 | – | –
[1], 328.15 K | – | – | 1128.1 ± 69 | – | –
[1], 333.15 K | – | – | 1134.1 ± 70 | – | –
[1], 338.15 K | – | – | 1140.6 ± 71 | – | –
[1], 343.15 K | – | – | 1147.1 ± 71 | – | –
[1], 348.15 K | – | – | 1154.2 ± 71 | – | –
[1], 353.15 K | – | – | 1158.5 ± 72 | – | –
[1], 358.15 K | – | – | 1166.7 ± 72 | – | –
[1], 363.15 K | – | – | 1173.2 ± 72 | – | –
[2], 278.37 K | – | – | – | 0.1629 ± 0.0089 | –
[2], 288.1 K | – | – | – | 0.1612 ± 0.0085 | –
[2], 293.15 K | – | 897.6 ± 1.9 | – | – | –
[2], 293.2 K | – | – | – | – | 254 ± 17
[2], 298.15 K | – | 894.6 ± 1.9 | – | – | –
[2], 298.16 K | – | – | – | 0.1602 ± 0.0095 | –
[2], 298.2 K | – | – | – | – | 196.2 ± 13
[2], 299.6 K | 0.00554 ± 0.0003 | – | – | – | –
[2], 303.15 K | – | 891.5 ± 1.9 | – | – | –
[2], 303.2 K | – | – | – | – | 151.2 ± 9.8
[2], 303.9 K | 0.00767 ± 0.00037 | – | – | – | –
[2], 307.92 K | – | – | – | 0.1598 ± 0.01 | –
[2], 308.2 K | – | – | – | – | 117.4 ± 7.5
[2], 308.7 K | 0.0101 ± 0.00046 | – | – | – | –
[2], 313.15 K | – | 885.2 ± 1.9 | – | – | –
[2], 313.2 K | – | – | – | – | 92.23 ± 5.8
[2], 313.7 K | 0.0129 ± 0.00058 | – | – | – | –
[2], 317.98 K | – | – | – | 0.1582 ± 0.01 | –
[2], 318.2 K | – | – | – | – | 73.75 ± 4.6
[2], 318.8 K | 0.0167 ± 0.00074 | – | – | – | –
[2], 323.15 K | – | 879 ± 1.9 | – | – | –
[2], 323.2 K | – | – | – | – | 59.32 ± 3.6
[2], 323.8 K | 0.0209 ± 0.0009 | – | – | – | –
[2], 328.08 K | – | – | – | 0.1565 ± 0.011 | –
[2], 328.2 K | – | – | – | – | 48.52 ± 3
[2], 328.8 K | 0.026 ± 0.0011 | – | – | – | –
[2], 333.15 K | – | 872.9 ± 1.9 | – | – | –
[2], 333.2 K | – | – | – | – | 40.22 ± 2.5
[2], 333.9 K | 0.0317 ± 0.0014 | – | – | – | –
[2], 338 K | – | – | – | 0.1558 ± 0.011 | –
[2], 338.2 K | – | – | – | – | 33.78 ± 2.1
[2], 338.9 K | 0.0383 ± 0.0016 | – | – | – | –
[2], 343.15 K | – | 866.7 ± 1.8 | – | – | –
[2], 343.2 K | – | – | – | – | 28.55 ± 1.8
[2], 343.9 K | 0.0458 ± 0.0019 | – | – | – | –
[2], 348.06 K | – | – | – | 0.1551 ± 0.01 | –
[2], 348.2 K | – | – | – | – | 24.46 ± 1.5
[2], 349 K | 0.0542 ± 0.0023 | – | – | – | –
[2], 353.15 K | – | 860.7 ± 1.8 | – | – | –
[2], 353.2 K | – | – | – | – | 20.95 ± 1.3
[2], 357.1 K | – | – | – | 0.1541 ± 0.01 | –
[2], 358.2 K | – | – | – | – | 18.13 ± 1.1
[2], 363.15 K | – | 854.7 ± 1.8 | – | – | –
[2], 363.2 K | – | – | – | – | 15.71 ± 0.96
[2], 368.2 K | – | – | – | – | 13.72 ± 0.84

CCCCCCCCCC(=O)[O-].CCCCCCCCCCCCCC[P+](CCCCCC)(CCCCCC)CCCCCC [trihexyltetradecylphosphonium decanoate]
Conditions | electrical conductivity [S/m] | mass density [kg/m3] | molar heat capacity at constant pressure [J/K/mol] | thermal conductivity [W/m/K] | viscosity [mPa·s]
[1], 293.15 K | – | – | 1181.2 ± 73 | – | –
[1], 298.15 K | – | – | 1191.7 ± 73 | – | –
[1], 303.15 K | – | – | 1199.5 ± 74 | – | –
[1], 308.15 K | – | – | 1209.3 ± 75 | – | –
[1], 313.15 K | – | – | 1217.2 ± 75 | – | –
[1], 318.15 K | – | – | 1221.8 ± 75 | – | –
[1], 323.15 K | – | – | 1230.3 ± 76 | – | –
[1], 328.15 K | – | – | 1238.2 ± 77 | – | –
[1], 333.15 K | – | – | 1246 ± 77 | – | –
[1], 338.15 K | – | – | 1250.6 ± 77 | – | –
[1], 343.15 K | – | – | 1264.4 ± 78 | – | –
[1], 348.15 K | – | – | 1269.6 ± 78 | – | –
[1], 353.15 K | – | – | 1278.8 ± 79 | – | –
[1], 358.15 K | – | – | 1285.3 ± 79 | – | –
[1], 363.15 K | – | – | 1296.5 ± 80 | – | –
[2], 278.09 K | – | – | – | 0.1601 ± 0.0093 | –
[2], 288 K | – | – | – | 0.1591 ± 0.0091 | –
[2], 293.15 K | – | 880.4 ± 1.9 | – | – | –
[2], 293.2 K | – | – | – | – | 546.3 ± 41
[2], 297.79 K | – | – | – | 0.1571 ± 0.0097 | –
[2], 298.15 K | – | 877.3 ± 1.9 | – | – | –
[2], 298.2 K | – | – | – | – | 409.8 ± 30
[2], 298.8 K | 0.00174 ± 9e-05 | – | – | – | –
[2], 303.15 K | – | 874.6 ± 1.9 | – | – | –
[2], 303.2 K | – | – | – | – | 314.5 ± 22
[2], 303.8 K | 0.00239 ± 0.00011 | – | – | – | –
[2], 308 K | 0.00297 ± 0.00013 | – | – | – | –
[2], 308.16 K | – | – | – | 0.1545 ± 0.01 | –
[2], 308.2 K | – | – | – | – | 242.5 ± 17
[2], 313.15 K | – | 868.1 ± 1.8 | – | – | –
[2], 313.2 K | – | – | – | – | 189.8 ± 13
[2], 313.8 K | 0.00395 ± 0.00017 | – | – | – | –
[2], 318.13 K | – | – | – | 0.1542 ± 0.01 | –
[2], 318.2 K | – | – | – | – | 151.3 ± 9.8
[2], 319.6 K | 0.00506 ± 0.00023 | – | – | – | –
[2], 323.15 K | – | 862 ± 1.8 | – | – | –
[2], 323.2 K | 0.00631 ± 0.00028 | – | – | – | 121.8 ± 7.7
[2], 326.82 K | – | – | – | 0.1535 ± 0.0098 | –
[2], 328.2 K | 0.00763 ± 0.00033 | – | – | – | 99.78 ± 6.2
[2], 333.15 K | – | 855.7 ± 1.8 | – | – | –
[2], 333.2 K | – | – | – | – | 82.68 ± 5.1
[2], 333.4 K | 0.00949 ± 0.00041 | – | – | – | –
[2], 338.2 K | – | – | – | – | 68.76 ± 4.2
[2], 338.3 K | 0.0118 ± 0.0005 | – | – | – | –
[2], 338.5 K | – | – | – | 0.1515 ± 0.011 | –
[2], 343.15 K | – | 849.7 ± 1.8 | – | – | –
[2], 343.2 K | – | – | – | – | 58.07 ± 3.6
[2], 343.5 K | 0.0137 ± 0.00058 | – | – | – | –
[2], 347.3 K | – | – | – | 0.1502 ± 0.012 | –
[2], 348.2 K | – | – | – | – | 49.28 ± 3
[2], 349.7 K | 0.0171 ± 0.00072 | – | – | – | –
[2], 353.15 K | – | 843.3 ± 1.8 | – | – | –
[2], 353.2 K | – | – | – | – | 42.21 ± 2.6
[2], 358.2 K | – | – | – | – | 36.41 ± 2.2
[2], 358.21 K | – | – | – | 0.1493 ± 0.011 | –
[2], 363.15 K | – | 837.4 ± 1.8 | – | – | –
[2], 363.2 K | – | – | – | – | 31.71 ± 1.9
[2], 368.2 K | – | – | – | – | 27.59 ± 1.7
